Experimental data published in BindingDB's records for patent US20240025919 (Genentech, 2024).

Tests used:
GTPase KRas = GTPase KRas (Homo sapiens, UniProt P01116); assay: KRAS WT Biochemical Assay
Description: Biochemical compound potencies are assessed by evaluating inhibition of SOS1-mediated nucleotide exchange in KRAS WT. In this assay, the SOS1-promoted exchange of fluorescently-labeled GDP (BOPIDY-GDP) is monitored by time-resolved fluorescence resonance energy transfer (TR-FRET). Compounds solubilized in DMSO are dispensed as concentration series into 384-well white assay plates. A preformed complex of 0.06 nM biotin-tagged recombinant human KRAS WT, 15 nM GDP and 0.06 nM terbium-labeled streptavidin (CisBIO) prepared in 10 uL/well assay buffer (20 mM HEPES, pH 7.5, 50 mM NaCl, 10 mM MgCl2, 0.01% Tween-20 and 1 mM dithiothreitol) is added and allowed to incubate for 10-minutes at room temperature. The reaction is initiated with the addition of 5 uL 300 nM recombinant human SOS1 and 300 nM BODIPY-GDP in assay buffer. After a 120-minute incubation, the fluorescence is measured with excitation at 337 nm and emission at 490 and 520 nm.

GTPase KRas [G12D] = GTPase KRas [G12D] (Homo sapiens, UniProt P01116, G12D); assay: KRAS G12D LoEnz Biochemical Assay
Description: Biochemical compound potencies are assessed by evaluating inhibition of SOS1I-mediated nucleotide exchange in KRAS […]. In this assay, the SOS1-promoted exchange of fluorescently-labeled GDP (BOPIDY-GDP) is monitored by time-resolved fluorescence resonance energy transfer (TR-FRET). Compounds solubilized in DMS0 are dispensed as concentration series into 384-well white assay plates. A preformed complex of biotin-tagged recombinant human KRAS (0.06 nM mutant G1 2D) and 0.06 nM terbium-labeled streptavidin (CisBIO) prepared in 10 uL/well assay buffer (20 mM HEPES, pH 7.5, 50 mM NaCl, 10 mMMMgCl2, 0.0100 Tween-20 and 1 mM dithiothreitol) is added and allowed to incubate for 10-minutes at room temperature. The reaction is initiated with the addition of 5 uL 300 nM recombinant human SOS1 and 300 nM BODIPY-GDP in assay buffer. After a 120-minute incubation, the fluorescence is measured with excitation at 337 nm and emission at 490 and 520 nm. The TR-FRET ratio is determined as the fluorescence at 520 nm divided by the fluorescence at 490 nm multiplied by 10,000. The results are normalized to percent inhibition based on control samples: DMSO (0% inhibition) and control compound at a concentration that inhibits completely (100% inhibition).

GTPase KRas [G12D], sequence (P01116 whole entry G12D): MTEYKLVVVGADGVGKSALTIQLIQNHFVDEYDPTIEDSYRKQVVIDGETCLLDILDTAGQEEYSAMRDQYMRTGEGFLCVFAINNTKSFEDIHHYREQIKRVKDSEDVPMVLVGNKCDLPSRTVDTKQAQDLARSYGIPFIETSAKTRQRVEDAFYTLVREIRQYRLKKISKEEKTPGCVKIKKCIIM
GTPase KRas, sequence (P01116 whole entry): as the sequence (P01116 whole entry G12D) above, with D12G counted along it

Structure (SMILES) | IC50 (GTPase KRas) | IC50 (GTPase KRas [G12D])
Fc1c(-c2cccc3cccc(Cl)c23)nc2c3c(nc(OC[C@@]45CCCN4C[C@H](F)C5)nc13)N1C[C@H]3CC[C@H](N3)[C@H]1CO2 [US20240025919, Compound 2] | 922 nM | 15.2 nM
C#Cc1c(F)ccc2cccc(-c3nc4c5c(nc(OCC67CCN6CC(F)(F)C7)nc5c3F)N3C[C@H]5CC[C@H](N5)[C@H]3[C@H](C)O4)c12 (some centres undefined) [US20240025919, Compound 22] | – | 2.99 nM
C[C@@H]1Oc2nc(-c3cc(N)c(F)c(F)c3CC(F)F)c(F)c3cc(OC[C@@H]4CC[C@H]5COCCN54)nc(c23)N2C[C@H]3CC[C@H](N3)[C@@H]12 [US20240025919, Compound 158] | – | 3.39 nM
